Measured values reported in ChEMBL document CHEMBL1201862, “PubChem BioAssay data set” (2004).
Activity calls are given as the source filed them.

Experiments:
HEK293 = experiment: EBV LMP1 TES2 canonical NF-kB signalling blockers – cell-based, HEK293, luciferase, cherry-pick, dose response (AID 588343); type: functional; settings: Homo sapiens
Beta-lactamase [1] = target: T1, Beta-lactamase (Pseudomonas aeruginosa, UniProt Q79MP6); experiment: […] counterscreen for selective VIM-2 inhibitors: dose response biochemical high throughput screening assay to identify inhibitors of IMP-1 metallo-beta-lactamase.
Beta-lactamase [2] = target: Beta-lactamase (Salmonella choleraesuis (strain SC-B67), UniProt Q5J463); experiment: Epi-absorbance-based counterscreen for selective VIM-2 inhibitors: dose response biochemical high throughput screening assay to identify inhibitors of TEM-1 serine-beta-lactamase.
Beta-lactamase [3] = target: T1, Beta-lactamase; experiment: inhibition of IMP-1 beta-lactamase activity – biochemical, epi-absorbance, selectivity assay for VIM-2 inhibitor project, dose response (AID 1920)
P388/ADR = experiment: cells; type: functional; settings: Mus musculus
P388 = experiment: cells; type: functional; settings: Mus musculus
SN12K1 = experiment: cells; type: functional; settings: Homo sapiens
[4] = cAMP pathway inhibition in counterscreen cell line – TR-FRET cAMP detection, counter-screen for MC4R biased antagonist project, dose response (AID 602305); type: functional, cell-based;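 also: U2OS cells stimulated with forskolin near its EC80 as the cAMP inducer; potency is for inhibition of forskolin-stimulated cAMP signaling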
[5] = target: T2, Heat shock factor protein 1 (Mus musculus, UniProt P38532); experiment: decrease of HSF1-responsive luciferase luminescence – cell-based, NIH3T3, dose retest, confirmation (AID 2382); type: functional;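 also: NIH3T3 fibroblasts with HSF1-driven luciferase reporter stressed by proteasome inhibitor MG132; luminescence from HSF1-driven luciferase expression after 8 hours of MG132 stress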
T2 sequence (P38532 whole entry): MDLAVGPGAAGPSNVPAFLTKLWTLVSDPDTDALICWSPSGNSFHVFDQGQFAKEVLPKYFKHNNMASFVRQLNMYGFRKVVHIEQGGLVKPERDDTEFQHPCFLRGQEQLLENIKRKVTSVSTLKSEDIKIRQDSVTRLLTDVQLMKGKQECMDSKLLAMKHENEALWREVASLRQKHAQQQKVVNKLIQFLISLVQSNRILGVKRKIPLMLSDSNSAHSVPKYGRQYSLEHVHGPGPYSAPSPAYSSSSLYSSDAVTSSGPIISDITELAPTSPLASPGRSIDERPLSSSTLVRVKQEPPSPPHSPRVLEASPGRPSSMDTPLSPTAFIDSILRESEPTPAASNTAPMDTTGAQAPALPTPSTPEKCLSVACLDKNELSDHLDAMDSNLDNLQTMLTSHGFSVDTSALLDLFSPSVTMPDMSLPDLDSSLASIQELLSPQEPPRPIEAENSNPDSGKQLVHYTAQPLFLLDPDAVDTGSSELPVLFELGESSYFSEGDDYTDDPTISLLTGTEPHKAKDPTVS

Melanocortin receptor 4 = Melanocortin receptor 4 (Homo sapiens, UniProt P32245); experiment: inhibitors of MC4R cAMP signaling – cell-based, TR-FRET, biased antagonists, dose response (AID 602298); type: functional;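 also: antagonist potency against agonist-stimulated cAMP production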
[6] = target: Melanin-concentrating hormone receptor 1 (Homo sapiens, UniProt Q99705); experiment: Late-stage fluorescence-based counterscreen for antagonists of the G-protein coupled receptor 7 (GPR7): cell-based dose response assay to identify antagonists of the melanin-concentrating hormone receptor 1 (MCHR1) Set 6.; type: functional
[7] = target: T3, Neuropeptides B/W receptor type 1 (Homo sapiens, UniProt P48145); experiment: human NPBW1 receptor blockade, IC50 – cell-based, fluorescence, dose response, set 6, late-stage follow-up (AID 588583); type: functional
T3 sequence (P48145 whole entry): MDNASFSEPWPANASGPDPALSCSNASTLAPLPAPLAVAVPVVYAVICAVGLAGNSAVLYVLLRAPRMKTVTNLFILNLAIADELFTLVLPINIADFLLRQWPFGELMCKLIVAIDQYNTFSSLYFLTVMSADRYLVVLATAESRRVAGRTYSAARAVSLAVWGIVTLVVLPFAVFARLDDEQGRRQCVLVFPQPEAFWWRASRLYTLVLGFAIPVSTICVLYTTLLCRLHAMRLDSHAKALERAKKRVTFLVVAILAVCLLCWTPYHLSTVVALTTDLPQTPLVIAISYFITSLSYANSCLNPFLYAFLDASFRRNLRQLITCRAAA

[8] = acridine orange displacement from DNA – biochemical, fluorescence polarization, cherry-pick, artefact control for RAD54 inhibitor project, dose response (AID 651673); type: functional
[9] = target: T4, Sentrin-specific protease 1 (Homo sapiens, UniProt Q9P0U3); experiment: Dose response confirmation of small molecule inhibitors of the catalytic domain of the SUMO protease, SENP1 in a FRET assay.; type: functional; settings: read-out: IC50_Mean
T4 sequence (Q9P0U3 whole entry): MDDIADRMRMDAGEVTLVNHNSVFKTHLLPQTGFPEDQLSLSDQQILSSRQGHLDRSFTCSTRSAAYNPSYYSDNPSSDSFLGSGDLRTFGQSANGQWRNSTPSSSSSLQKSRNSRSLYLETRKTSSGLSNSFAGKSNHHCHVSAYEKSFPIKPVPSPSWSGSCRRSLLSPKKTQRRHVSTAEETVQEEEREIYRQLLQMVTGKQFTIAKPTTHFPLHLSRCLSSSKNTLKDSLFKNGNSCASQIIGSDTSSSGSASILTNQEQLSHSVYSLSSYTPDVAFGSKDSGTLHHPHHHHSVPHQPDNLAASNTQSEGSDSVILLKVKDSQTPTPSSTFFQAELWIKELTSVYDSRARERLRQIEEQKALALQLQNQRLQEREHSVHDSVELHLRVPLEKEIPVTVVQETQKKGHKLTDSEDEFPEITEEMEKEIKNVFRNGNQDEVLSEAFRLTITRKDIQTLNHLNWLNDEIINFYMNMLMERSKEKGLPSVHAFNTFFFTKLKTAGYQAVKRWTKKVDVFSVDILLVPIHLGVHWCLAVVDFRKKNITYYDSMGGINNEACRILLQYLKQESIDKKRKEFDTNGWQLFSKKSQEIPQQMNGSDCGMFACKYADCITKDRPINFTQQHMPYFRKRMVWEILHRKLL

Streptococcus = experiment: GAS UMAA2166 growth inhibition – luminescence, BacTiterGlo, counter-screen for streptokinase expression inhibitor project, dose response (AID 1915); type: functional, organism-based;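 also: potency for reduction of bacterial viability or growth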
[10] = system: Streptococcus sp. 'group A'; experiment: Streptococcus pyogenes SK(-)GAS viability under kanamycin – luminescence, BacTiterGlo, confirmation, counter-screen for streptokinase expression inhibitor project, dose response (AID 1900); type: functional, organism-based
[11] = target: T4, Sentrin-specific protease 1; experiment: SENP1 catalytic domain blockers, concentration series – biochemical, kinetic FRET, dose response (AID 651697); type: functional; settings: read-out: IC50_Mean
Streptokinase A = target: T5, Streptokinase A (Streptococcus pyogenes serotype M1, UniProt P10520); experiment: viability-normalized secreted streptokinase activity reduction – plasminogen activation absorbance, OD405, dose response (AID 1914); type: functional, Streptococcus pyogenes M1 GAS;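 also: secreted streptokinase activity via plasminogen activation per viability signal from cell pellet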
T5 sequence (P10520 whole entry): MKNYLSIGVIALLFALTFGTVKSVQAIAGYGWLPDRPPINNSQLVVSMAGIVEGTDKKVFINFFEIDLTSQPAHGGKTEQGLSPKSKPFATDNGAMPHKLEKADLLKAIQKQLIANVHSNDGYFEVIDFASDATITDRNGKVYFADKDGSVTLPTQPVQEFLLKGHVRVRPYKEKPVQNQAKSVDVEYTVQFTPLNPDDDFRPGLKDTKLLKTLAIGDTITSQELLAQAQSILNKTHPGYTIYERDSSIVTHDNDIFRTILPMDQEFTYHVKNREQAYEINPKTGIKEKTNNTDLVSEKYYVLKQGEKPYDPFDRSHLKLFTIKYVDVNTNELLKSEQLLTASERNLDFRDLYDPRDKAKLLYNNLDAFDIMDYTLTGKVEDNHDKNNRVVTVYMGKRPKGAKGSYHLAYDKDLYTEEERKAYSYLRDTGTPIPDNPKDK

Vero = experiment: viability loss in Vero cells – cell-based, plate reader, cherry-pick samples, cytotoxicity control, dose response (AID 687020); type: functional; settings: Chlorocebus sabaeus

T1 sequence (Q79MP6 whole entry): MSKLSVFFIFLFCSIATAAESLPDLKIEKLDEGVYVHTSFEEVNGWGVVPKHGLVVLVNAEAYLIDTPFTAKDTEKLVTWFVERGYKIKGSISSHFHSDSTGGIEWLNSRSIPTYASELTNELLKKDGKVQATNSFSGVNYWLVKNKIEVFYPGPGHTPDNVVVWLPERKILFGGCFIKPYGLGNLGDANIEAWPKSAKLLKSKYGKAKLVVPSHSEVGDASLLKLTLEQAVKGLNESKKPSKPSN
Sequence of Melanocortin receptor 4 (P32245 whole entry): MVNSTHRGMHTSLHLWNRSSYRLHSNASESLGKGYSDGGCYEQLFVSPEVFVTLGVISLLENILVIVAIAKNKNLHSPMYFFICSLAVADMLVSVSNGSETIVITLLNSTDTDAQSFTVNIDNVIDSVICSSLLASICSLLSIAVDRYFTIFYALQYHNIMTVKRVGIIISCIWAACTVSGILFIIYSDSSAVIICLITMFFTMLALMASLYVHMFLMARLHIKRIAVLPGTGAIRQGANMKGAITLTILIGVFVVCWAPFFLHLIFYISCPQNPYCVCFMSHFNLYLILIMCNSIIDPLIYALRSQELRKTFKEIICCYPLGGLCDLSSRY
Sequence of Beta-lactamase (Salmonella choleraesuis (strain SC-B67), UniProt Q5J463) (Q5J463 whole entry): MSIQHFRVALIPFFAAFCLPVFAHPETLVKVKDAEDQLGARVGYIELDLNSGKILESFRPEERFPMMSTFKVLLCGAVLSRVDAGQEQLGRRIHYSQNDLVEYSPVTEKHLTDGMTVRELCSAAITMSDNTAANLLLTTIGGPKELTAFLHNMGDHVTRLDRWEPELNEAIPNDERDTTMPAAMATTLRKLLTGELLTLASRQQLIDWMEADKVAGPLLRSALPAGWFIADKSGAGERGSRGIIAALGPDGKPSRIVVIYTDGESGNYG
Sequence of Melanin-concentrating hormone receptor 1 (Q99705 whole entry): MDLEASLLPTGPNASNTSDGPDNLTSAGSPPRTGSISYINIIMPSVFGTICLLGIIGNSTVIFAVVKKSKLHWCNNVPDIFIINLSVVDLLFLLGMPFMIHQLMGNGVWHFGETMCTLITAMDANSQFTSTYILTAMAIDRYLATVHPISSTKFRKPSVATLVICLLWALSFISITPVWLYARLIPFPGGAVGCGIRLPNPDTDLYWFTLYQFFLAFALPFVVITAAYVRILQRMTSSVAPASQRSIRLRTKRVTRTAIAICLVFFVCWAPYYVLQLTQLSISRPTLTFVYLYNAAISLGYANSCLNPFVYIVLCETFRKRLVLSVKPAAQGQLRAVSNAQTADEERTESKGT

CCc1ccc(/C=C2\SC(=S)N(CCCC(=O)NC3=NCCS3)C2=O)cc1
AC50 (HEK293): 1.85 µM (active)

COc1ccccc1-n1c(S)nnc1-c1ccco1
IC50 (Beta-lactamase [1]): > 59.6 µM (inactive)
IC50 (Beta-lactamase [2]): > 59.6 µM (inactive)
IC50 (Beta-lactamase [3]): > 59.6 µM (inactive)

O=C(NC(Cc1ccc(I)cc1)C(=O)O)c1cccc(Br)c1 (centres undefined)
GI50 (P388/ADR): 55.2 µM (inactive)
GI50 (P388): 47.6 µM (inactive)
GI50 (SN12K1): > 100 µM (inactive)

CC(C)(C)c1ccc2c(c1)OP1(Oc3cccc4cccnc34)(O2)Oc2ccc(C(C)(C)C)cc2O1
GI50 (P388/ADR): 1.02 µM (active)
GI50 (P388): 0.689 µM (active)
GI50 (SN12K1): 4.24 µM (inactive)

COc1cccc(C(=O)Nc2sc(C(C)C)cc2C(N)=O)c1OC
IC50 [4]: > 64.6 µM (inactive)
EC50 [5]: > 195 µM (not active)
IC50 (Melanocortin receptor 4): > 64.6 µM (inactive)

COc1ccc(OC)c(NC(=O)CCN2C(=O)c3cccc([N+](=O)[O-])c3C2=O)c1
IC50 [4]: > 64.6 µM (inactive)
IC50 (Melanocortin receptor 4): > 64.6 µM (inactive)

COc1ccc(Oc2c(Cl)cnn(Cc3ccccc3[N+](=O)[O-])c2=O)cc1
IC50 [6]: 1.41 µM (active)
IC50 [7]: 1.41 µM (active)

Cc1ccc(-n2cccc2/C=C2\C(=N)N3N=C(C(C)C)SC3=NC2=O)cc1
IC50 [4]: > 64.6 µM (inactive)
IC50 (Melanocortin receptor 4): > 64.6 µM (inactive)

Cc1nc2oc3c(O)ncnc3c2c2c1COC(C)(C)C2
AC50 [8]: 67.1 µM (active)

COC(=O)c1c(NC(=O)c2ccccc2)sc(C(=O)c2ccccc2)c1C
IC50 [9]: 21.3 µM (inactive)
EC50 (Streptococcus): 18.4 µM (active)
EC50 [10]: 6.12 µM (active)
IC50 [11]: 15.6 µM (active)
EC50 (Streptokinase A): > 150 µM (not active)

O=C(c1ccncc1)N1CCCC(N2CCN(c3cccc(C(F)(F)F)c3)CC2)C1 (centres undefined)
AC50 (Vero): 31.8 µM (active)

S=c1[nH]nc(Cn2c(-c3ccccn3)nc3ccccc32)n1-c1ccc2c(c1)OCCO2
IC50 (Beta-lactamase [1]): > 59.6 µM (inactive)
IC50 (Beta-lactamase [2]): > 59.6 µM (inactive)
IC50 (Beta-lactamase [3]): > 59.6 µM (inactive)
